Experiment [1] is described as follows: Inhibition of glycogen phosphorylase (unknown origin). The arrangement: species or system Homo sapiens.
The target in experiment [2] is T1, Glycogen phosphorylase, muscle form (Oryctolagus cuniculus, UniProt P00489).
T1 sequence (P00489 whole entry): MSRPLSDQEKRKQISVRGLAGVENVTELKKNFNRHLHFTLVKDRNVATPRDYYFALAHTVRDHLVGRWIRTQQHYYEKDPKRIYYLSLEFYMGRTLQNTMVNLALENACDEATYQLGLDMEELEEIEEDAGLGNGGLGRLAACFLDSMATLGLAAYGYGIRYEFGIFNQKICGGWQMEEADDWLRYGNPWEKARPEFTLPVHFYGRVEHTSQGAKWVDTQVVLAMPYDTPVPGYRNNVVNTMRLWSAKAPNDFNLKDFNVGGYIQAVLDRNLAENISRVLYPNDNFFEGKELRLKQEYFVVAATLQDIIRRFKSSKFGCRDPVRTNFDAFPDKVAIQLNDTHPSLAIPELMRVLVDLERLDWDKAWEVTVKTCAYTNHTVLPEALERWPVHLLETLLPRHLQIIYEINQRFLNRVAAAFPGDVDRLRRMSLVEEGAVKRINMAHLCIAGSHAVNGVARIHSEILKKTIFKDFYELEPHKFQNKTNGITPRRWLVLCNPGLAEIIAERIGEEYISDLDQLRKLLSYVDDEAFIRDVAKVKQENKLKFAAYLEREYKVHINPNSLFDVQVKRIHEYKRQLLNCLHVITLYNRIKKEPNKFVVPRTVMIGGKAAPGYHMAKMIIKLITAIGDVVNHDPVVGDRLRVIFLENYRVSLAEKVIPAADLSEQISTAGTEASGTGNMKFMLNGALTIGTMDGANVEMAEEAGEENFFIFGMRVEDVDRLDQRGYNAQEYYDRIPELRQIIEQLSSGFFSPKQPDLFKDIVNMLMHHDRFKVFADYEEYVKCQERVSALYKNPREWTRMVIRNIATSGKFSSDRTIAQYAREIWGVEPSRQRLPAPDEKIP
The experiment can be described thus: Inhibition of glycogen phosphorylase b in rabbit skeletal muscle using glycogen substrate and glucose-1-phosphate by Lineweaver-Burk plot method.

Six molecules from ChEMBL document CHEMBL3621112, “Computationally motivated synthesis and enzyme kinetic evaluation of N-(-d-glucopyranosyl)-1,2,4-triazolecarboxamides as glycogen phosphorylase inhibitors” (Medchemcomm, 2015) can be followed below.

By Ki is commonly meant a dissociation constant, usually derived from enzyme kinetics or from competition with a known ligand.

Take `O=C(NC(=O)c1ccc2ccccc2c1)N[C@@H]1O[C@H](CO)[C@@H](O)[C@H](O)[C@H]1O`: in experiment [1], the affinity corresponds to a Ki of 0.35 µM. Regarding `O=C(N[C@@H]1O[C@H](CO)[C@@H](O)[C@H](O)[C@H]1O)c1nnc(-c2ccccc2)[nH]1`, in experiment [2] (read-out: Ki), the inhibition constant (Ki) came to 1 µM. As to `O=C(N[C@@H]1O[C@H](CO)[C@@H](O)[C@H](O)[C@H]1O)c1noc(-c2ccc3ccccc3c2)n1`, the Ki result in experiment [2] is “Not Active”. On to `OC[C@H]1O[C@H](O)[C@H](O)[C@@H](O)[C@@H]1O`, for which the affinity in experiment [1], expressed as Ki, was […]. As to `O=C(N[C@@H]1O[C@H](CO)[C@@H](O)[C@H](O)[C@H]1O)c1nc(-c2ccc3ccccc3c2)no1`, in experiment [2], the Ki result was “Not Active”. `O=C(N[C@@H]1O[C@H](CO)[C@@H](O)[C@H](O)[C@H]1O)c1nnc(-c2ccc3ccccc3c2)[nH]1`: the Ki in experiment [2] (read-out: Ki) is 9.2 µM.
